What was measured:
[1] = system: mTOR localization to LAMP2-positive lysosomes; experiment: mTORC1 recruitment assay, immunofluorescence in HeLa cells; format: cell-based; details: 50 μM, 1 h, amino acid stimulation
Experimental: (§1) Next, we sought to determine whether YP 1-44 had expected cellular effects in disrupting the TORC1 complex, recruitment of TORC1 to the lysosome, and TORC1 signaling. We treated Hela cells with YP 1-44 for 1 h with and without amino acid stimulation. […] This finding is consistent with the role of Lamtor as an obligate scaffold not only for mTORC1 but also for the Rag GTPases at the lysosome. […] Thus, our results establish that YP 1-44 abolishes mTORC1 signaling both in vitro and in live cells by preventing mTORC1 localization to the lysosome, and that this action occurs via disruption of the Lamtor-Rag scaffold.
HeLa cells were plated on fibronectin-coated glass coverslips in 6-well plates (35 mm diameter/well), at 300,000-500,000 cells/well. 12-16 hours later, cells were subjected to amino acid depletion for 1 h in the presence of 50 uM compounds or an equivalent volume of DMSO, restimulated with a complete amino acid mix for 10 minutes, and fixed in 4% paraformaldehyde (in PBS) for 15 min at RT. The coverslips were rinsed twice with PBS and cells were permeabilized with 0.1% (w/v) Saponin in PBS for 10 min. […]

RagC and RagA = experiment: Rag GTPase lysosomal localization, immunofluorescence in HeLa cells; format: cell-based; details: 50 μM, 1 h
Experimental: as §1
HeLa cells were plated on fibronectin-coated glass coverslips in 6-well plates (35 mm diameter/well), at 300,000-500,000 cells/well. 12-16 hours later, cells were subjected to amino acid depletion for 1 h in the presence of 50 uM compounds or an equivalent volume of DMSO, restimulated with a complete amino acid mix for 10 minutes, and fixed in 4% paraformaldehyde (in PBS) for 15 min at RT. The coverslips were rinsed twice with PBS and cells were permeabilized with 0.1% (w/v) Saponin in PBS for 10 min. After rinsing twice with PBS, the slides were incubated with primary antibody in 5% normal donkey serum for 1 hr at room temperature, rinsed four times with PBS, and incubated with fluorophore-conjugated secondary antibodies produced in goat or donkey (Life Technologies, diluted 1:1000 in 5% normal donkey serum) for 45 min at room temperature in the dark, washed four times with PBS. Coverslips were mounted on glass slides using Vectashield (Vector Laboratories) and imaged on a spinning disk confocal system (Andor Revolution on a Nikon Eclipse Ti microscope).

LAMTOR5 [2] = biological target: T1, LAMTOR5 (Homo sapiens, UniProt O43504); experiment: Rhodamine labeling with alkyne probe on purified Lamtor-Rag complexes; format: binding; details: excess unlabeled compound
From the text: (§2) FIGS. 8A-8B. (FIG. 8A) Structures of CC 2-11 and CC 1-44. CC 2-11 bears an alkyne group on a separate ring from the cysteine-reactive warhead. The presence of the alkyne group enables us to directly label the modified target protein (e.g. Lamtor5) with biotin or rhodamine groups, either in gels or in complex proteomes. […] Thus, CC 2-11 allows precise mapping of the target cysteines as well as accurate identification of the off-targets.
as §2, with “We also synthesized a” for “FIGS. 8A-8B. (FIG. 8A) Structures of”, “1-44 derivative, named” for “2-11 and”, “2-11, which” for “1-44. CC 2-11”, “warhead (FIG. 8A).” for “warhead.”, “will allow” for “allows”

LAMTOR5 [3] = biological target: T1, LAMTOR5; experiment: Gel-based ABPP against IA-alkyne labeling of pure LAMTOR5 protein; format: binding
From the text: FIGS. 9A-9C. Potency and selectivity of YP 1-44 analogs. (FIG. 9A) initial YP 1-44 analogs and their relative potency against IA-alkyne labeling of pure human LAMTOR5 protein visualized by gel-based ABPP (a). Protein expression levels were also ascertained by silver staining (b). (FIG. 9B) Gel-based ABPP IA-alkyne cysteine-reactivity analysis of YP 1-44 analogs against Rag-Ragulator complex proteins (a). Protein expression levels were also ascertained by silver staining (b). (FIG. 9C) Hela whole cell proteome gel-based ABPP analysis of IA-alkyne cysteine-reactivity with YP 1-44 analogs (a). Protein expression levels were also ascertained by silver staining (b).
Thus, we performed medicinal chemistry to optimize the potency and selectivity of our initial hits by addition of further bulk to the core YP 1-44 scaffold (FIGS. 9A-9C; FIG. 5B). We initially screened these compounds against both LAMTOR5 and the Ragulator complex using gel-based ABPP methods competing the binding of these YP 1-44 analogs against IA-alkyne labeling of these proteins (FIG. 5C, FIG. 9). We also tested these compounds against Hela cell whole proteome cysteine reactivity to get initial read-outs of proteome-wide selectivity (FIGS. 9A-9C, FIG. 5D).

mTORC2 = experiment: p-AKT signaling in Hela cells by immunoblotting; format: cell-based; details: up to 50 μM
autophagy [4] = experiment: Autophagy induction in tissues of injected mice; format: in vivo; details: 100 mg/kg vs rapamycin 10 mg/kg, heart, skeletal muscle, kidney
autophagy [5] = experiment: Immunoblotting for autophagic markers LC3b and p62 in HEK-293A cells; format: cell-based
Experimental: FIGS. 6A-6D. CC 1-44 inhibits mTORC1 signaling and activates autophagy. (FIG. 6A) Visual IP experiment monitoring binding of GFP-RagB to RFP-tagged, bead-bound Lamtor complex. […] (FIG. 6B) Immunofluorescence for endogenous RagA and LAMP2 in HEK-293A cells treated with DMSO, YP 1-44 or CC 1-44 for 2 h. […] (FIG. 6C) Immunofluorescence for endogenous mTOR and LAMP2 in HEK-293A cells treated with DMSO or CC 1-44 for 2 h. […] (FIG. 6D) Immunoblotting for autophagic markers LC3b and p62 from HEK-293A cells treated with DMSO (lane 1) or CC 1-44 (lane 3) for 2 h.
In cells treated with CC 1-44, autophagy becomes activated within 1 h, as judged by accumulation of cleaved LC3b and increased degradation of p62 (FIG. 6D).

SMILES	amino acid-induced mTOR localization to LAMP2-positive lysosomes [1]	amino acid-induced mTOR localization to LAMP2-positive lysosomes ([1]; listed as YP1-44)	RagA localization to LAMP2-positive lysosomes (RagC and RagA)	RagC localization to LAMP2-positive lysosomes (RagC and RagA)	RagA localization to LAMP2-positive lysosomes (RagC and RagA; listed as YP1-44)	RagC localization to LAMP2-positive lysosomes (RagC and RagA; listed as YP1-44)	competition of CC 2-11 rhodamine labeling signal (LAMTOR5 [2])	potency against IA-alkyne labeling of LAMTOR5 (LAMTOR5 [3])	effect on canonical mTORC2 substrate pAKT (mTORC2)	autophagy induction compared to rapamycin (autophagy [4])	autophagy induction compared to rapamycin (autophagy [4]; listed as C 1-44)	autophagy (LC3b band increase, p62 band disappearance) (autophagy [5]; HEK-293A cells, 2 h)	total autophagic flux (autophagy [5]; HEK-293A cells, 2 h, with Bafilomycin A)	time to autophagy activation (accumulation of cleaved LC3b, increased degradation of p62) (autophagy [5]; treated cells)
C=CC(=O)n1ccc2ccccc21 [YP 1-44]	disrupts amino acid-induced mTOR localization	mTORC1 recruitment fails	no longer localized to the lysosome	no longer localized to the lysosome	causes dispersion of RagA from LAMP2-positive lysosomes	causes dispersion of RagC from LAMP2-positive lysosomes	–	–	–	–	–	–	–	–
C=CC(=O)N1CCc2c(OCc3cc(C(F)(F)F)cc(C(F)(F)F)c3)cccc21 [CC 1-44]	–	–	–	–	–	–	competes	desirable potency	did not affect	superior potency to rapamycin	much stronger autophagy induction as compared to rapamycin	activation of autophagy	increased	≤ 1 h

Reference: patent US10807951B2, “mTORC1 modulators” (THE REGENTS OF THE UNIVERSITY OF CALIFORNIA, priority 2017, dated 2020)
